Key:
[1] = test system: COL7A1; assay: Collagen VII gene expression in HaCaT human immortalized keratinocytes; type: cell-based; settings: 24 hrs, dose-dependent
Source text: Skin fragility is partly attributed to changes in hemidesmosomes and the expression downregulation of various collagen proteins (Collagen I, III, IV, VII) or laminins (such as LN-5) at the dermal-epidermal junction. LN-5 has been proven to be a component of anchoring fibers in the basement membrane of the skin, cornea, conjunctiva, and other tissues. LN-5 participates in cell-cell interactions through the mediation of integrins and proteoglycans, thereby playing a crucial role in cell adhesion, growth, migration, and differentiation. The appearance of wrinkles is closely related to the normal synthesis and expression of collagen and laminins. Therefore, the increase of the above collagen content and LN-5 can achieve a certain role in resisting wrinkles, and plays an important role in the aging process of the skin. Therefore, the anti-wrinkle effect of the compound to be tested was evaluated by detecting the level of Collage I protein of […] by ELISA, and detecting the transcription levels of epidermal cells (keratinocytes) III, IV, VII and LN -5 by Real-Time PCR. The following Test Examples 8-1 and 8-2 evaluated the anti-wrinkle efficacy of compounds using HaCaT human immortalized keratinocytes and HSF human skin fibroblasts. […]

[2] = Kinetic solubility in aqueous buffer; type: physicochemical; settings: 2 hrs at 25 °C
Experimental: Experimental Methods: 30 µL of the 10 mM DMSO stock solution of the compound to be test was placed in a solubility sample plate (duplicate), 970 µL of aqueous buffer solution was added to the plate, and the plate was sealed with a sealing membrane and shaken at 1100 rpm for 2 hrs at 25 °C. The sample in the solubility plate was transferred to a filter plate, and filtered to obtain a filtrate. 10 µL of the filtrate was transferred into 980 µL of methanol along with 10 µL of DMSO, and then the solution was diluted 10-fold with methanol:water (1:1), and the resulting sample was analyzed by LC-MS/MS to obtain Area (filtered). Separately, 10 mM of the DMSO stock solution of the compound to be test was diluted to 300 µM with DMSO. 10 µL of this 300 µM DMSO solution and 10 µL of aqueous buffer solution were added into 980 µL of methanol, and then diluted 10-fold with methanol:water (1:1), and the resulting sample was analyzed by LC-MS/MS to obtain Area (std). The kinetic solubility was calculated according to the following formula: Solubility(μM) = (Areafiltered × DFfiltered)/(Areastd × DFstd) × [std] × DFstd [formula] wherein DF is the dilution factor.

[3] = test system: reactive oxygen species (ROS); assay: Zebrafish oxidative aging model (menadione), ROS content; type: in vivo; settings: I-8 at 22.2 µg/mL, 22 hrs, 4 µM menadione; compared with the modeling group, statistical significance
Experimental: (§1) Experimental animal: Healthy wild-type AB strain zebrafish at 48 hpf (hours post-fertilization)
(§2) Healthy AB strain zebrafish were taken as experimental animal. A zebrafish oxidative aging model was constructed using chemical mutagenesis with 4 µM menadione as the modeling drug. Fucoxanthin was used as a positive control compound. After treating the zebrafish oxidative aging model with different concentrations of I-8 for 22 hrs, changes in the reactive oxygen species (ROS) content, β-galactosidase activity, and the expression of three antioxidant and anti-aging related genes (Cu/Zn-sod, Mn-sod, and ampk) were respectively detected and statistically analyzed.
(§3) During the experiment, the modeling drug, positive compound, and I-8 were dispersed together in the culture water of zebrafish. […] Cell ROX™ Deep Red fluorescent probes and β-galactosidase staining kits were used to specifically label ROS and β-galactosidase in the fish, respectively, and the staining intensity was quantified using Image-Pro Plus software. After extracting RNA from the whole fish, the expression changes of three genes (Cu/Zn-sod, Mn-sod, and ampk) in the fish were detected at the mRNA level using Quantitative Real-time PCR (RT-qPCR). The data were statistically analyzed using GraphPad software.

[4] = test system: β-galactosidase; assay: Zebrafish oxidative aging model (menadione), β-galactosidase activity; type: in vivo; settings: I-8 at 22.2 µg/mL, 22 hrs, 4 µM menadione; compared with the modeling group, statistical significance
Experimental: as §1, §2, §3

[5] = test system: Cu/Zn-sod; assay: Zebrafish oxidative aging model (menadione), Cu/Zn-sod gene expression by RT-qPCR; type: in vivo; settings: I-8 at 2.5, 7.5, and 22.2 µg/mL, 22 hrs, 4 µM menadione; compared to the modeling group, statistical significance
Experimental: as §1, §2, §3

[6] = Permeability into skin using a Franz diffusion cell; type: in vitro ADME, Bama miniature pig; settings: for Concentration of the compound to be test in the skin, Mean / Concentration of the compound to be test in the skin, Skin-1 / Concentration of the compound to be test in the skin, Skin-2 / Concentration of the compound to be test in the skin, Skin-3: 0.1 mg/mL solution, 32 °C
Experimental: Experimental materials: skin from the back of a one-month-old Bama miniature pig, 0.8-1.0 mm thick; 0.1 mg/mL solution of the compound to be test, dissolvent: 50 mM Sodium Phosphate Buffer (PB) buffer solution containing 20% ethanol.
Experimental procedure: • 1. 400 uL solution of the compound to be test was pipetted into the feed cell, repeated three times. • 2. About 7600 uL of 50 mM PB buffer solution was added to the corresponding receiving cell. • 3. The compound to be test was permeated at 32 °C for 2 hrs and 6 hrs. • 4. At 2 hrs and 6 hrs, the skin was washed with 50 mM PB buffer solution containing 20% ethanol, the skin from the permeation area was removed and homogenized, and acetonitrile solution containing internal standard was added. • 5. Centrifugation was performed, 100 µL of the supernatant was taken and added into 100 µL of purified water, after mixing uniformly, quantitative analysis was performed by LC-MS/MS.

O=S1(=O)Oc2cc(O)ccc2-c2ccc(O)cc21 [Compound I-8]
COL7A1 gene expression [1]: upregulate | solubility kinetic at 2 h [2]: > 300 µM | ROS content [3]: downregulated | β-galactosidase activity [4]: downregulated | expression of Cu/Zn-sod gene [5]: upregulated | Concentration of the compound to be test in the skin, Mean ([6]; Time 2 h): 7167 ng/g | Concentration of the compound to be test in the skin, Skin-1 ([6]; Time 2 h): 7450 ng/g | Concentration of the compound to be test in the skin, Skin-2 ([6]; Time 2 h): 6600 ng/g | Concentration of the compound to be test in the skin, Skin-3 ([6]; Time 2 h): 7450 ng/g | Concentration of the compound to be test in the skin, Mean ([6]; Time 6 h): 11417 ng/g | Concentration of the compound to be test in the skin, Skin-1 ([6]; Time 6 h): 13650 ng/g | Concentration of the compound to be test in the skin, Skin-2 ([6]; Time 6 h): 10450 ng/g | Concentration of the compound to be test in the skin, Skin-3 ([6]; Time 6 h): 10150 ng/g | permeation amount ([6]; within 6 hours): 10 µg/g

From EP4803511A1, “SMALL MOLECULE COMPOUND HAVING SULFONIC ACID OR SULFINIC ACID LACTONE STRUCTURE, COMPOSITION AND USE THEREOF” (Hangzhou Phecdamed Co., Ltd., priority 2023, dated 2025)
